Broadly, the melting point is the temperature of the solid-liquid transition. For the compound `COc1ccc(S(=O)(=O)Nc2cccc3c2Nc2ccccc2CO3)cc1`, the melting point fell in the range of 154 to 155 °C.

As to `O=C(NNC(=O)c1occ(-c2ccccc2)c1-c1ccccc1)c1ccsc1`, the melting point lay in the range of 195 to 197 °C.

The compound `C[C@@H]1CCCC[C@H]1C(=O)O` (relative stereo) yielded a melting point of 51 to 53 °C.

`O=C(Cc1ccccc1)NC1C(=O)N2C1SC1(CCN(c3ccccc3)CC1)C2C(=O)OCc1ccccc1` (centres undefined) displayed a melting point of 120 to 121 °C. The same measure for `CCCc1nc2c(N)nc3ccc(Br)cc3c2s1`: 177 to 180 °C; for `CC(C)Oc1c(C(=O)O)oc(C(=O)O)c1OC(C)C`: 131 to 132 °C.

Turning to `COc1cc(Nc2nccc(-c3sc(-c4cccnc4)nc3C)n2)cc(OC)c1OC`, the melting point fell in the range of 210 to 211 °C.

In the case of `CCc1ccc(-c2[nH]nc3c2C(=O)c2c(NC(C)=O)cccc2-3)cc1`, the melting point worked out at 294 °C. `Cc1cc(C)n(-c2ccc(OC=C3C=CC=CC3n3nnn(C)c3=O)c(Cl)c2)n1` (centres undefined): the melting point fell in the range of 122 to 124 °C.

The compound `CCOC(=O)NNC(=S)NC` returned a melting point of 117 °C. As for `Cc1c(F)c(F)c(C(O)C#N)c(F)c1F` (centres undefined), the melting point was found to be 124 °C.

As to `CC(C)(C)c1cc(Cn2nc(CCCCc3nn(Cc4cc(C(C)(C)C)c(O)c(C(C)(C)C)c4)c(=O)o3)oc2=O)cc(C(C)(C)C)c1O`, the melting point turned out to be 190 °C. As for `O=Cc1c(Cl)ccc2cc(Cl)cnc12`, the melting point came to 208 °C. Turning to `N[C@@H](CN1CCC(=C2c3ccccc3CCc3ccccc32)CC1)C(=O)O`, the melting point lay within 150 to 151 °C. The same measure for `OCC1OC(n2ccnn2)C(O)C1O` (centres undefined): 123 to 125 °C. For `CCCn1nc2c(N)nc3ccccc3c2c1CCNC(=O)C1CC1`, the melting point is 215 to 217 °C. Compound `Cn1cnc2nc(-c3cccc4ccccc34)nn2c1=S` had a melting point of 278 to 279 °C. With `Cc1cc(C)c2cccc(OCc3c(Cl)ccc(S(=O)(=O)N4CCC[C@H]4C(=O)N4CCN(C(=O)c5ccc(C(N)=NO)cn5)CC4)c3Cl)c2n1`, the melting point is 148 to 150 °C. As for `COC(=O)C=Cc1cc(O)cc2cc(-c3ccc(O)cc3)oc12`, the melting point is 231 to 234 °C. `O=C1C(CCO)Oc2cc([N+](=O)[O-])ccc2N1Cc1cccc(Cl)c1` (centres undefined) returned a melting point of 100 to 102 °C. For the compound `Clc1cc(N2CCSCC2)nc(Cl)n1`, the melting point fell in the range of 118 to 122 °C. Compound `CCCCn1c(=O)c2cc(C(=O)OCC)cn2c2cc(Cl)c(Cl)cc21` returned a melting point of 179 to 180 °C. Take `O=C1NCC(COc2cccc3c2SCCC3)O1` (centres undefined): the melting point was 152 to 153 °C. Take `CC(C)(C)c1cc(-c2coc3c(C(C)(C)C)cc(C(C)(C)C)cc23)c(O)c(C(C)(C)C)c1`: the melting point was in the range of 236 to 238 °C. The same measure for `Cn1nc(C(F)(F)F)cc1O`: 170 to 173 °C; for `CCCCCCCCCCOc1ccc(-c2ccc(C(=O)O)cc2)cc1`: 246 to 250 °C; for `O=C(O)c1[nH]c2cc(Cl)cc(Cl)c2c1N(Cc1ccccc1)C(=O)c1ccccc1`: 266 to 267 °C. In the case of `COc1c(C)cccc1CC(N)(CF)C(N)=O` (centres undefined), the melting point came out at 118 °C. The same measure for `CCCCCCCCCCCCCCOc1ccc(OCc2ccccc2)c(C(=O)N(CC(=O)OCC)CC(=O)OCC)c1`: 49 to 50 °C. `O=C(O)CCCCCCCCNS(=O)(=O)c1ccc(Cl)cc1` had a melting point of 121 to 123 °C. With `CC(C)(C)OC(=O)N[C@@H](Cc1ccccc1)[C@@H](O)[C@@H](O)C1CC1`, the melting point fell in the range of 83 to 85 °C. `O=C(Cc1cccc(O)c1)NNC(=O)c1c(O)cc(O)cc1Cl`: the melting point came to 217 °C.

The compound `N#Cc1cc(CCNc2ncnc3c(F)ccc(F)c23)ccc1Oc1cc(C(F)(F)F)ccn1` gave a melting point of 157 to 159 °C.

Consider `CC(=O)Oc1cccc(C(C)=NOCCOc2ccc(CC3SC(=O)NC3=O)cc2)c1` (centres undefined), for which the melting point fell in the range of 30 to 50 °C. The same measure for `COc1ccc(NC(=S)NCCCn2ccnc2)cc1OC`: 160 to 161 °C; for `CCOc1cc(C=C(Br)Br)ccc1OC`: 41 to 42 °C. As for `CCOCc1cc2cc(Br)ccc2oc1=Nc1cccc(OC)c1`, the melting point lay within 93 to 94 °C.

Consider `Nc1c2c(nc3ccccc13)CCc1cn(N)nc1-2`, for which the melting point is above 250 °C. In the case of `CNC(=O)c1nc(SC)n2c1CN=C(c1ccccc1Cl)c1cc(Cl)ccc1-2`, the melting point is 224 to 227 °C. The same measure for `O=C(O)c1ccc(S(=O)(=O)Nc2cc3c4c(c2)CCCC4CCC3)cc1`: 266 to 268 °C; for `O=c1[nH]c(=O)n(CCCCN2CC=C(c3ccc(Cl)cc3)CC2)c2ccccc12`: 162 to 166 °C; for `CCCCNc1ccn2nccc2n1`: 75 to 76 °C.

In turn, `Cc1csc2c1c(-c1ccccc1)nc(=O)n2C` showed a melting point of 275 to 280 °C. The same measure for `COC(=O)C=C1SC(Nc2c(Cl)cccc2Cl)=NC1=O`: 189 to 190 °C; for `O=C(NCc1ccc(Cl)cc1)c1cc(Cl)c2cccnc2c1O`: 163 to 166 °C; for `CCn1ncc2c(NCc3ccc(C#N)cc3)c3ccccc3nc21`: 233 to 234 °C. Turning to `Cc1nc(-c2ccc(C(=O)c3ccccc3)cc2)sc1C(=O)O`, the melting point is 217 to 218 °C. In turn, `Cc1ccc(CC2CCN(C(=O)CNc3ccc4c(c3)OCC(=O)N4)CC2)cc1` had a melting point of 206 to 208 °C. Compound `CCOC(=O)C1OC1C(=O)NC(CC(C)C)C(OC)c1ccccc1` (centres undefined) returned a melting point of 108 to 109 °C. The same measure for `CC(=O)OC1CC2(C)C(=O)CCC2C2CC=C3CC(O)CCC3(C)C12` (centres undefined): 155 to 156 °C. As to `CNS(=O)(=O)Cc1ccc(NN=CCCC#N)cc1`, the melting point fell in the range of 124 to 125 °C. Regarding `CCCn1c2c(ccc1=O)C(NCCc1ccc(Cl)c(Cl)c1)CCC2` (centres undefined), the melting point lay within 105 to 107 °C. The same measure for `CC1(C)CCC(=O)Nc2cc(OCCCCCN3CCN(c4cccc(Cl)c4Cl)CC3)ccc21`: 128 to 130 °C; for `OCc1nnc(-c2ccc(-c3ccccc3)cc2)n1-c1ccccc1F`: 220 to 223 °C. In turn, `CCCCCCn1ccc(N)nc1=O` registered a melting point of 216 to 217 °C. Regarding `CCC1(COCc2ccccc2Cl)CCC(C)(C(N)=S)O1` (centres undefined), the melting point fell in the range of 78 to 80 °C. The same measure for `OCCCNCc1cc(C(F)(F)F)cc(C(F)(F)F)c1`: 57 to 58 °C; for `CC(C)(C)OC(=O)c1ncn2c1[C@@H]1CCCN1C(=O)c1sccc1-2`: 226 to 227 °C. Compound `O=C(NCCCn1ccnc1)C(c1ccccc1)c1ccccc1` gave a melting point of 136 to 138 °C.

As for `O=C(NN=Cc1ccc(Br)cc1)c1[nH]c2ccccc2c1Cc1ccccc1`, the melting point was 227 to 229 °C.

Compound `Cc1cc2oc(=O)c3c(c2cc1NC(=O)c1ccccc1)CCN(CCN1CC2CCC(CC2)C1)C3` displayed a melting point of 174 to 176 °C.

In turn, `O=[N+]([O-])c1cnc2ccc(SC(c3ccccc3)(c3ccccc3)c3ccccc3)nn12` yielded a melting point of 168 to 170 °C. Take `COc1ccc(N/C=C2\C(=O)NC(=O)c3ccccc32)cc1`: the melting point lay within 150 to 151 °C. On to `CCCOC(=O)c1cc(NC(=O)c2ccccc2O)cc(Br)c1O`, for which the melting point lay within 198 to 200 °C. `CCC(=O)NC1c2cc3nonc3cc2OC(C)(C)C1O` (centres undefined) yielded a melting point of 203 to 205 °C. With `O=c1nc(-c2cccc(CN3CCCCC3)n2)sc2ccccc12`, the melting point was 162 to 163 °C. For `CNCC(O)COc1cc(-c2ccc(OC)cc2)nc2cc(C)ccc12` (racemic), the melting point was in the range of 140 to 142 °C.

As for `Cc1oc(-c2ccccc2)nc1COc1cccc(CN(O)C(=O)N(C)O)c1`, the melting point lay in the range of 62 to 64 °C.

As for `O=C(O)CC(=O)Nc1ccc2c(c1)c(=O)[nH]c(=O)n2CCCCN1CCC(OC(c2ccccc2)c2ccccc2)CC1`, the melting point was in the range of 166 to 168 °C. `CCCc1c(OCc2ccc(C(=O)O)c(OCC)c2)ccc(C(C)=O)c1O` gave a melting point of 145 to 150 °C. With `CC(C)(O)c1cccc2ccccc12`, the melting point lay within 81 to 86 °C. `Cc1cc(C)cc(Oc2ccc(Oc3cc(C)cc(C)c3)cc2)c1` had a melting point of 103 °C. `CCCC=Cc1ncn2c1CN(C)C(=O)c1cc(F)ccc1-2` displayed a melting point of 150 to 151 °C. The compound `O=C(O)c1cccc(C(=O)NC(Cc2c[nH]c3ccccc23)C(=O)CCc2cc(C(F)(F)F)cc(C(F)(F)F)c2)c1` (centres undefined) had a melting point of 113 to 116 °C. With `CC(C)(n1cncn1)C(O)(Cn1cncn1)c1ccc(Cl)cc1` (centres undefined), the melting point is 114 °C.

Turning to `CC(C)(C)c1cc(C(=O)c2ccccn2)cc2c1OCC2(C)C`, the melting point was 95 to 97 °C.

In turn, `CC(=O)c1ccc(OCc2ccccc2)c(CS(C)(=O)=O)c1` had a melting point of 94 to 97 °C. As for `O=C1OC(=O)c2c1cccc2C(Cl)(Cl)Cl`, the melting point lay within 121 to 124 °C.

Consider `CCS(CCO)=NS(=O)(=O)c1ccccc1` (centres undefined), for which the melting point is 75 to 76.5 °C.

`COc1cc(OC)c2c(=O)[nH]c(-c3ccc(OCCNC(C)C)c(-c4ccc(C(=O)N(C)C)cc4)n3)nc2c1` yielded a melting point of 214 to 215 °C. The same measure for `CCC1CCCCN1C(=O)Nc1ccccc1CCc1cc(C(C)(C)C)c(O)c(C(C)(C)C)c1` (centres undefined): 137 to 138 °C.

The compound `Clc1ccc(C=Cc2nc(CNc3ccc(CCCCn4ccnn4)cc3)co2)cc1` came in with a melting point of 120 to 122 °C. The same measure for `CN1CCn2nc(Nc3cc(Cl)nn(C)c3=O)cc2C1`: 175 to 176 °C.

In the case of `CCOC(=O)Cc1ccc(Cc2nc3n(-c4c(Cl)cccc4Cl)[nH]c(C(C)C)c-3c(=O)n2)cc1`, the melting point was in the range of 168 to 169 °C. As for `CC(C)c1nc2c3c(c(C(=O)N(C)C)cc2n1C)CCC(c1ccccc1)O3` (centres undefined), the melting point was in the range of 179 to 180 °C. The same measure for `O=CC(=C(Cl)c1ccc(Cl)cc1Cl)c1ccc(Cl)cc1`: 128 °C; for `O=C(O)c1nn(-c2ccc(Cl)cc2)c2c1[C@H]1CC[C@@H]2C1`: 110 to 112 °C. With `CCOCC(=O)Nc1ncc(Cc2cc(OC)c(OC)c(OC)c2)c(N)n1`, the melting point fell in the range of 175 to 176 °C.

Compound `CC1CC2C(C(O)CC3(C)C2CCC3(O)C(=O)COCc2ccccc2[N+](=O)[O-])C2(C)C=CC(=O)C=C12` (centres undefined) yielded a melting point of 116 to 119 °C.

These data come from a melting point compilation (Tetko et al.; mined from patent text by program, amines drawn as free bases though some values may be those of a salt).
